In test [1] the test system is THP-1 macrophages. The experiment in a line: Phagocytosis of IgG-opsonized sheep RBCs by THP-1 macrophages. It counts as cell-based, human. The text has this:
Phagocytosis by the human-derived THP-1 macrophages of IgG-opsonized RBCs was studied by imaging in DIC microscopy. […] RBC membranes were prelabeled with PKH26, and non-engulfed RBCs were labeled with a fluorescein-labeled antibody against the Fc of the IgG-opsonin.
To more directly assess the function of the IIA isoform, the effects of both knockdown and overexpression were functionally studied.

The subject of test [2] is THP-1 macrophages. Nature of the test: Phagocytosis of IgG-opsonized streptavidin beads with or without hCD47 by THP-1 macrophages. It counts as cell-based, human. As for the experimental part: The extracellular immunoglobulin-like domains of human CD47 (hCD47) was recombinantly expressed with a spacer domain (Brown et al., 1994, Protein Eng. 7:515-21; Brown et al., 1998, J. Exp. Med. 188:2083-90) plus a C-terminal biotinylation site. […] The beads were opsonized by pretreatment with anti-streptavidin to again induce FcR-mediated phagocytosis (for 45 minutes at 37° C.), and non-engulfed beads were detected with a flourescein anti-Fc against the IgG-opsonin. The number of adherent IgG-opsonized beads per phagocyte was independent of hCD47 (not shown).
Human CD47 gave a Ki at high opsonin of 20 CD47/μm^2, which appears ˜10-fold less than normal human RBC densities of CD47. […] A higher baseline level of bead phagocytosis versus RBCs could redirect the fact that stiffer targets are more readily engulfed (Beningo et al., 2002, J. Cell Sci. 115:849-856).
For phagocytosis assays, macrophages were plated in 4 cm^2, or 2 cm^2 Lab-Tek II Chambered Coverglass (Nalge Nunc International, Naperville, Ill.) at 1.5×10^5/cm^2. Streptavidin polystyrene beads of different radius: 3.5 μm, 1.1 μm, 160 nm (Spherotech) and 100 nm (Ademtech) were added to macrophages at a ratio of 2:1, 20:1, 277:1, and 2206:1 respectively and incubate at 37° C. for 45 min. […] Non-phagocytosed beads were washed with PBS. Cells were fixed with 5% formaldehyde (Fisher Scientific) for 5 minutes, followed by immediate replacement with PBS. For differentiation of non-internalized beads, beads were labeled with a primary antibody, rabbit anti-streptavidin (Sigma) at 1:1000 in PBS for 20 min at 25° C. A second antibody, anti-rabbit R-PE (Sigma) was added at 1:1000 in PBS to the cells and incubated for an additional 20 minutes at 25° C. Cells were then washed with PBS/0.4% BSA and then quantified by light and fluorescent microscopy. At least 200 cells were scored per well and experiments were repeated at least three times. […]
Beads were opsonized at saturating densities of IgG, and over a 20-fold range of CD47 densities, the number of internalized beads per THP-1 was measured. […]

In test [3] the test system is THP-1 macrophages. The test is classed as cell-based, human.
Test [4] relates to A549 human lung epithelial cells. It counts as cell-based. The following applies: blebbistatin at various concentrations; MOI 270.
The test system of test [5] is non-muscle myosin IIA at the phagocytic synapse of THP-1 macrophages. Nature of the test: Protein localization to the phagocytic synapse (immunofluorescence). It counts as cell-based, human. The following applies: blebbistatin 50 μM, 10 min pre-incubation. As to the method: […] Opsonized beads of different sizes were added to THP-1 cells, PMA treated and immediately placed at 4° C. for 10 min to synchronize phagocytosis. […] For studies involving blebbistatin (EMD Biosciences), macrophages were treated for 10 min at 4° C. prior to temperature increase to 37° C. or for 45 min and 37° C. Macrophages treated with DMSO were used to verify no solvent effects.
Immunostaining was performed by permeabilization with 0.1% Triton X-100 in PBS for 20 min before blocking for 1 h with 5% BSA in PBS. Staining with primary antibodies was carried out for 1 h at room temperature in PBS. Following washing, samples were incubated with appropriate PE-conjugated secondary antibodies (1:1000). To label cytoskeletal proteins at the phagocytic synapse, primary Ab's prepared with Zenon Alexa 488 or Zenon Alexa 647 Fab labeling kits (Invitrogen) labeled for 45 min at room temperature. Cells were immediately fixed using 5% formaldehyde for 20 minutes and washed with PBS. Samples were analyzed by differential interference contrast (DIC) and fluorescence microscopy.
Images were acquired with an inverted microscope (Olympus; IX71) with a 60× (oil, 1.4 NA) objective using a Cascade CCD camera (Photometrics, Tuscon, Ariz.). Image acquisition was performed with Image Pro software (Media Cybernetics, Silver Spring, Md.). […]

Test [6] relates to THP-1 macrophages. The experiment in a line: SHP-1 inhibitor effect on phagocytosis of IgG-opsonized particles. The test is classed as cell-based, human. As to the method: For phagocytosis assays with CD47 attached particles at 100 nm to 1.1 μm diameter were IgG-opsonizied. THP-1 macrophage, PMA activated were treated with 0-0.5 μM NSC-87877 an SHP-1 Inhibitor (gift from Frank L. Conlon) 5 minutes prior to the addition of IgG-opsonizied particles. Phagocytosis assay occurred at 37° C. for 45 minutes and then fixed for 5 minutes with 5% formaldehyde as described for the phagocytosis assay (Fisher Scientific).
In order to specifically block SHP-1, an inhibitor NSC-87877 was used with a reported high specificity to SHP-1 (Chen et al., 2006, Mol. Pharmacol. 70(2):562-70; Langdon et al., 2007, Development 134(22):4119-30). […] The uptake of these particles was measured as the number of particles ingested per phagocyte.

A further test addresses SHP-1 (Homo sapiens, UniProt P29350). The note with it: reported, Chen et al., 2006; cited from earlier work.

SHP-1, sequence (P29350 whole entry): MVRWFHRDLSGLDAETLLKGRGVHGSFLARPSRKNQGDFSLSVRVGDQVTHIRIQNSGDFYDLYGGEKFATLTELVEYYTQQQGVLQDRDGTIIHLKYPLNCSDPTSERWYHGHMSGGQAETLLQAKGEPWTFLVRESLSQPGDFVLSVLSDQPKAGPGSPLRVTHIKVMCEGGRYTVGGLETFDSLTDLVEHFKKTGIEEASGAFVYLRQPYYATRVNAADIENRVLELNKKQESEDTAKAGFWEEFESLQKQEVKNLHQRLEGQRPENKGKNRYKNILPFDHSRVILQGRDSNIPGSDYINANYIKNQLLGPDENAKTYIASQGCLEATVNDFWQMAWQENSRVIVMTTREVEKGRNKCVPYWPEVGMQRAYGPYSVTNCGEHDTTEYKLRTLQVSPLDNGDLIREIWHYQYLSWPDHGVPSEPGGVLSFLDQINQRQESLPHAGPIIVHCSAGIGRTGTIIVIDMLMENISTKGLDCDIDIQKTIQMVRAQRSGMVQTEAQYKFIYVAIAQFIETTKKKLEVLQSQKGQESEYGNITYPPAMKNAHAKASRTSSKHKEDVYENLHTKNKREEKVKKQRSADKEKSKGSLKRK

`Cc1ccc2c(c1)C(=O)C1(O)CCN(c3ccccc3)C1=N2` (stereo not drawn) [blebbistatin]: the “inhibition of ShRBC phagocytosis by GFP-NMM IIA expressing THP-1” value in the test on THP-1 macrophages [1] (5 μM blebbistatin) is about 50%. Besides, the “engulfment of sheep RBCs by THP-1 macrophages” value in the test with THP-1 macrophages [1] (compared with CD47 on human RBCs) is recorded as “inhibited”. The inhibition constant (Ki) (in general, a dissociation constant, usually derived from enzyme kinetics or from competition with a known ligand) on THP-1 macrophages [1] (dose-response, sheep RBCs engulfed by THP-1 macrophages, read-out: Ki-blebb for blebbistatin inhibition of phagocytosis) amounted to 5 µM. Moreover, the “uptake of IgG-opsonized particles by THP-1” value in the test with THP-1 macrophages [2] (50 μM blebbistatin, 100 nm particles, vs DMSO) is recorded as “decrease in uptake”; in the test on THP-1 macrophages [2] (blebbistatin, 1.1 μm particles), “comparable results”. In addition, in the test on THP-1 macrophages [2] (blebbistatin, uncoated approximately 2.1 μm beads), the “phagocytosis of CD47-null beads” value is “inhibited phagocytosis of CD47-null beads to a level similar as hCD47 beads”. Besides, in the test with THP-1 macrophages [3] (50 μM Blebbistatin vs DMSO), the “transduction of control lentiviral particles” value is recorded as “inhibited transduction”. Besides, the “transduction of overexpressed hCD47 lentiviral particles” value with THP-1 macrophages [3] (50 μM Blebbistatin vs DMSO) is reported as “no changes were observed”. The “transduction efficiency of control lentivirus” value in the test with THP-1 macrophages [3] (blebbistatin at various concentrations, MOI 700) is on record as “dose dependent response”. In addition, the “lentivirus transduction in A549 cells” value in test [4] is listed as “no effect”. Further, in test [5], the “enrichment of NMM IIA at synaptic contacts with sheep RBC targets” value is listed as “inhibited enrichment of NMM IIA”.
For the compound `O=S(=O)(O)c1ccc2cc(N=Nc3cc(S(=O)(=O)O)c4cccnc4c3O)ccc2c1` [NSC-87877], the “particles ingested per phagocyte, hCD47 particles” value is reported as “an increase of ingested particles” in the test on THP-1 macrophages [6] (62.5 nM NSC-87877, 100 nm IgG-opsonized particles with hCD47) and “increase in uptake comparable to uncoated IgG-opsonizied particles” in the test on THP-1 macrophages [6] (NSC-87877, 1.1 μm IgG-opsonized particles with hCD47). The “particles ingested per phagocyte, beads without hCD47” value with THP-1 macrophages [6] (62.5 nM NSC-87877, 100 nm IgG-opsonized particles without hCD47) was “no statistical difference”. Besides, at SHP-1, the IC50 – broadly, the point on the concentration scale where inhibition reaches its midpoint – is 0.5 µM.

Values taken from patent US9050269B2, “Protection of virus particles from phagocytosis by expression of CD47” (priority 2009, dated 2015).
